We go through 28 compounds from patent US8445501B2, “Substituted 7-carboxamido-pyrrolo[3,2-d]pyrimidines” (Takeda GmbH, priority 2008, dated 2013).

The term IC50 denotes the midpoint of a concentration-inhibition curve. Read a high IC50 as lower potency.

The target in this assay is T1, human PDE5 (Homo sapiens, UniProt O76074).
T1 construct: from tissue; host or cells: platelets from fresh blood of human donors (lysate, 10,000 g supernatant)
Description: Inhibition of the type 5 phosphodiesterase (PDE5) activity, modified SPA test with platelet lysate. Particulars: PDE5 from human platelet lysate, 0.5 μM cGMP. The assay is classed as biochemical. The gist of the method: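 Human platelet lysate (10,000 g supernatant) as PDE5 source in SPA with 0.5 μM cGMP plus [3H]cGMP tracer, pH 7.4, 5 mM Mg2+, 1 μM motapizone and 10 nM PDE2 inhibitor; 10–20% conversion. 5 min preincubation, 15 min at 37 °C, stopped with SPA beads/IBMX. IC50 by non-linear regression.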
`CCOC(=O)N1CCCC(CNC(=O)c2c[nH]c3c(-c4c(OCC5CC5)ccc5c4OCO5)ncnc23)C1` (stereo not shown) [Example 31, 3-({[4-(5-Cyclopropylmethoxy-benzo[1,3]dioxol-4-yl)-5H-pyrrolo[3,2-d]pyrimidine-7-carbonyl]-amino}-methyl)-piperidine-1-carboxylic acid ethyl ester] gave an IC50 of 0.224 nM. `COc1ccc(OCC2CC2)c(-c2ncnc3c(C(=O)N[C@H]4CC[C@@H](NC(=O)C5(O)CC5)CC4)c[nH]c23)c1` [Example 209, cis-4-(2-Cyclopropylmethoxy-5-methoxy-phenyl)-5H-pyrrolo[3,2-d]pyrimidine-7-carboxylic acid {4-[(1-hydroxy-cyclopropanecarbonyl)-amino]-cyclohexyl}-amide] showed a concentration for half-maximal inhibition (IC50) of 0.692 nM.

In the case of `CCCCOc1ccc2c(c1-c1ncnc3c(C(=O)NC4CCN(C(=O)[C@H](C)O)CC4)c[nH]c13)OCO2` [Example 253, 4-(5-Butoxy-benzo[1,3]dioxol-4-yl)-5H-pyrrolo[3,2-d]pyrimidine-7-carboxylic acid [1-((S)-2-hydroxy-propionyl)-piperidin-4-yl]-amide], the IC50 is 0.17 nM. `CCC(=O)N1CC(NC(=O)c2c[nH]c3c(-c4c(OCC5CC5)ccc5c4OCO5)ncnc23)C1` [Example 40, 4-(5-Cyclopropylmethoxy-benzo[1,3]dioxol-4-yl)-5H-pyrrolo[3,2-d]pyrimidine-7-carboxylic acid (1-propionyl-azetidin-3-yl)-amide] gave an IC50 of 0.427 nM. As for `COCC(=O)N1CCC(NC(=O)c2c[nH]c3c(-c4ccc(F)cc4OCC4CC4)ncnc23)CC1` [Example 83, 4-(2-Cyclopropylmethoxy-4-fluoro-phenyl)-5H-pyrrolo[3,2-d]pyrimidine-7-carboxylic acid [1-(2-methoxy-acetyl)piperidin-4-yl]-amide], the figure is 5.13 nM.

Regarding `C[C@H](O)C(=O)N1CCC(NC(=O)c2c[nH]c3c(-c4c(OCC5CC5)ccc5c4OCO5)ncnc23)CC1` [Example 176, 4-(5-Cyclopropylmethoxy-benzo[1,3]dioxol-4-yl)-5H-pyrrolo[3,2-d]pyrimidine-7-carboxylic acid [1-((S)-2-hydroxy-propanoyl)-piperidin-4-yl]amide], the half-inhibitory concentration (IC50) is 0.245 nM. Turning to `C[C@H](O)C(=O)N1CCCC(CNC(=O)c2c[nH]c3c(-c4c(OCC5CC5)ccc5c4OCO5)ncnc23)C1` (stereo partly drawn) [Example 190, 4-(5-Cyclopropylmethoxy-benzo[1,3]dioxol-4-yl)-5H-pyrrolo[3,2-d]pyrimidine-7-carboxylic acid [1-((S)-2-hydroxy-propionyl)piperidin-3-ylmethyl]-amide], 0.251 nM corresponded to half-maximal inhibition (IC50). On to `Cc1ccc(OCC2CC2)c(-c2ncnc3c(C(=O)NC4CCN(C(=O)[C@H](C)O)CC4)c[nH]c23)c1` [Example 247, 4-(2-Cyclopropylmethoxy-5-methyl-phenyl)-5H-pyrrolo[3,2-d]pyrimidine-7-carboxylic acid [1-((S)-2-hydroxy-propionyl)piperidin-4-yl]-amide], for which 2.34 nM corresponded to half-maximal inhibition (IC50). `CCOc1ccc2c(c1-c1ncnc3c(C(=O)N[C@@H]4CCN(C(=O)COC)C4)c[nH]c13)OCO2` [Example 138] showed an IC50 of 6.03 nM.

As for `CC(=O)c1cc(-c2ncnc3c(C(=O)NC4CCN(C(C)=O)CC4)c[nH]c23)c(OCC2CC2)cc1C` [Example 268, 4-(5-Acetyl-2-cyclopropylmethoxy-4-methyl-phenyl)-5H-pyrrolo[3,2-d]pyrimidine-7-carboxylic acid (1-acetyl-piperidin-4-yl)-amide], the midpoint of inhibition, the IC50, lay at 0.794 nM. `CCC(=O)N1CCC[C@@H](NC(=O)c2c[nH]c3c(-c4cc(OC)c(F)cc4OCC4CC4)ncnc23)C1` [Example 101, 4-(2-Cyclopropylmethoxy-4-fluoro-5-methoxy-phenyl)-5H-pyrrolo[3,2-d]pyrimidine-7-carboxylic acid ((R)-1-propionyl-piperidin-3-yl)-amide]: the IC50 is 0.162 nM. The value for `CC(=O)N1CCC(NC(=O)c2c[nH]c3c(-c4cc(F)c(O)cc4OCC4CC4)ncnc23)CC1` [Example 277, 4-(2-Cyclopropylmethoxy-5-fluoro-4-hydroxy-phenyl)-5H-pyrrolo[3,2-d]pyrimidine-7-carboxylic acid (1-acetyl-piperidin-4-yl)-amide] was 93.3 nM. The value for `Cc1ccc(OCC2CC2)c(-c2ncnc3c(C(=O)NC4CCN(C(=O)CO)CC4)c[nH]c23)c1` [Example 246, 4-(2-Cyclopropylmethoxy-5-methyl-phenyl)-5H-pyrrolo[3,2-d]pyrimidine-7-carboxylic acid [1-(2-hydroxy-acetyl)piperidin-4-yl]-amide] was 3.63 nM; that for `CC(=O)N[C@H]1CC[C@H](NC(=O)c2c[nH]c3c(-c4ccccc4OCC4CC4)ncnc23)CC1` [Example 90, trans-4-(2-Cyclopropylmethoxy-phenyl)-5H-pyrrolo[3,2-d]pyrimidine-7-carboxylic acid (4-acetylamino-cyclohexyl)-amide] was 5.62 nM. As for `COCCOc1ccc2c(c1-c1ncnc3c(C(=O)N[C@H]4CC[C@H](NC(C)=O)CC4)c[nH]c13)OCO2` [Example 161, trans-4-[5-(2-Methoxy-ethoxy)-benzo[1,3]dioxol-4-yl]-5H-pyrrolo[3,2-d]pyrimidine-7-carboxylic acid (4-acetylamino-cyclohexyl)-amide], the figure is 5.25 nM; as for `CCOC(=O)N[C@H]1CC[C@H](NC(=O)c2c[nH]c3c(-c4cc(OC)ccc4OCC4CC4)ncnc23)CC1` [Example 66, trans-(4-{[4-(2-Cyclopropylmethoxy-5-methoxy-phenyl)-5H-pyrrolo[3,2-d]pyrimidine-7-carbonyl]-amino}-cyclohexyl)-carbamic acid ethyl ester], 0.631 nM. With `CCCCOc1ccc2c(c1-c1ncnc3c(C(=O)NC4CCN(C(=O)CC)CC4)c[nH]c13)OCO2` [Example 144, 4-(5-Butoxy-benzo[1,3]dioxol-4-yl)-5H-pyrrolo[3,2-d]pyrimidine-7-carboxylic acid (1-propionyl-piperidin-4-yl)-amide], the midpoint of inhibition, the IC50, lay at 0.115 nM. The value for `O=CN1CCC(CNC(=O)c2c[nH]c3c(-c4c(OCC5CC5)ccc5c4OCO5)ncnc23)CC1` [Example 23, 4-(5-Cyclopropylmethoxy-benzo[1,3]dioxol-4-yl)-5H-pyrrolo[3,2-d]pyrimidine-7-carboxylic acid (1-formyl-piperidin-4-ylmethyl)-amide] was 0.447 nM; that for `COc1cc(-c2ncnc3c(C(=O)N[C@@H]4CCCN(C(C)=O)C4)c[nH]c23)c(OCC2CC2)cc1F` [Example 100, 4-(2-Cyclopropylmethoxy-4-fluoro-5-methoxy-phenyl)-5H-pyrrolo[3,2-d]pyrimidine-7-carboxylic acid ((R)-1-acetyl-piperidin-3-yl)-amide] was 0.126 nM; that for `CCC(=O)N[C@H]1CC[C@H](NC(=O)c2c[nH]c3c(-c4cc(F)ccc4OCC4CC4)ncnc23)CC1` [Example 88, trans-4-(2-Cyclopropylmethoxy-5-fluoro-phenyl)-5H-pyrrolo[3,2-d]pyrimidine-7-carboxylic acid (4-propionylamino-cyclohexyl)-amide] was 1.66 nM. As for `COc1ccc(OCC2CC2)c(-c2ncnc3c(C(=O)NC4CCN(C(=O)C5(O)CC5)CC4)c[nH]c23)c1` [Example 213, 4-(2-Cyclopropylmethoxy-5-methoxy-phenyl)-5H-pyrrolo[3,2-d]pyrimidine-7-carboxylic acid [1-(1-hydroxy-cyclopropanecarbonyl)-piperidin-4-yl]-amide], the figure is 0.55 nM; as for `O=C(NC1CCN(C(=O)CO)CC1)c1c[nH]c2c(-c3c(OCC4CC4)ccc4c3OCO4)ncnc12` [Example 171, 4-(5-Cyclopropylmethoxy-benzo[1,3]dioxol-4-yl)-5H-pyrrolo[3,2-d]pyrimidine-7-carboxylic acid [1-(2-hydroxy-ethanoyl)-piperidin-4-yl]amide], 0.302 nM.

For `COCCOc1cc(OC)ccc1-c1ncnc2c(C(=O)NC3CCN(C(=O)COC)CC3)c[nH]c12` [Example 160, 4-[4-Methoxy-2-(2-methoxy-ethoxy)-phenyl]-5H-pyrrolo[3,2-d]pyrimidine-7-carboxylic acid [1-(2-methoxy-acetyl)-piperidin-4-yl]-amide], the IC50 was 23.4 nM.

Compound `CCOC(=O)N[C@H]1CC[C@@H](NC(=O)c2c[nH]c3c(-c4ccc(OC)cc4OCC4CC4)ncnc23)CC1` [Example 58, cis-(4-{[4-(2-Cyclopropylmethoxy-4-methoxy-phenyl)-5H-pyrrolo[3,2-d]pyrimidine-7-carbonyl]-amino}-cyclohexyl)-carbamic acid ethyl ester] gave an IC50 of 0.339 nM. `CCOC(=O)N1CCC(NC(=O)c2c[nH]c3c(-c4cc(C)ccc4OCC4CC4)ncnc23)CC1` [Example 125, 4-{[4-(2-Cyclopropylmethoxy-5-methyl-phenyl)-5H-pyrrolo[3,2-d]pyrimidine-7-carbonyl]-amino}-piperidine-1-carboxylic acid ethyl ester] showed an IC50 of 1.17 nM. The value for `O=C(CO)N[C@H]1CC[C@@H](NC(=O)c2c[nH]c3c(-c4ccc(F)cc4OCC4CC4)ncnc23)CC1` [Example 214, cis-4-(2-Cyclopropylmethoxy-4-fluoro-phenyl)-5H-pyrrolo[3,2-d]pyrimidine-7-carboxylic acid [4-(2-hydroxy-acetylamino)-cyclohexyl]-amide] was 2.63 nM; that for `CC(=O)N1CCC[C@H](NC(=O)c2c[nH]c3c(-c4c(OCC5CC5)ccc5c4OCO5)ncnc23)C1` [Example 46, 4-(5-Cyclopropylmethoxy-benzo[1,3]dioxol-4-yl)-5H-pyrrolo[3,2-d]pyrimidine-7-carboxylic acid ((S)-1-acetyl-piperidin-3-yl)-amide] was 1.38 nM. Consider `O=CN1CC[C@@H](NC(=O)c2c[nH]c3c(-c4c(OCC5CC5)ccc5c4OCO5)ncnc23)C1` [Example 14, 4-(5-Cyclopropylmethoxy-benzo[1,3]dioxol-4-yl)-5H-pyrrolo[3,2-d]pyrimidine-7-carboxylic acid ((R)-1-formyl-pyrrolidin-3-yl)-amide], for which the IC50 is 1.38 nM.
